Experimental findings from patent US11512074B2, “Substituted diamino heterocyclic carboxamide compound and a composition containing the compound and use thereof” (Shenzhen TargetRx, Inc., priority 2018, dated 2022) are described below.

The IC50 is the concentration needed to halve the response being measured. In general, AUC(0-t) refers to exposure summed from dosing to a finite time, without extrapolation to infinity. The Cmax is the maximum level reached in the sampled fluid or tissue. For orientation: Tmax means the time at which the peak concentration occurs. As a reminder, the half-life is the time in which the quantity being followed falls by half. High values mean slow decline, low ones rapid decline.

One data set deals with MV-4-11 cells. Description: Inhibition of cell MV-4-11 proliferation (CTG assay). Format: cell-based. The following applies: Homo sapiens, MV4-11, 72 hours. An excerpt:
(§1) Cell MV-4-11 (ATCC, Cat. No. CRL-9591), cell MOLM-13 (COBIOER, Cat. No. CBP60678), RPMI-1640 (GIBCO, Cat. No. A10491-01), penicillin-streptomycin (GIBCO, Cat. No. 15140-122), fetal bovine serum (GIBCO, Cat. No. 10099-141), phosphate buffer solution PBS (GIBCO, Cat. No. 10010-031), DMSO (Sigma, Cat. No. D8418-1L), CelltiterGlo Assay kit (CTG) (Promega, Cat. No. G7573), 96-well plate with transparent flat bottom and black walls (PerkinElmer, Cat. No. 6005680-50), plate shaker (QILINBEIER, Cat. No. B-9002), centrifuge (Eppendorf, Cat. No. 5804R), CO2 incubator (Thermo Scientific, Cat. No. 371), microscope (OLYMPUS Cat. No. CKX41), multi-plate reader (PerkinElmer, Cat. No. EnVision).
(§2) (2) Preparation of Cell Suspension • a) The medium was collected from the culture bottle and centrifuged at 1000 rpm for 5 min. • b) The supernatant was discarded, and the cells were resuspended in medium containing 10% fetal bovine serum, and counted to prepare a cell suspension (cell viability was greater than 90%). • c) The cell suspension was added into a 96-well plate, with […] in each well, namely 5000 MV-4-11 cells/well; 5000 MOLM-13 cells/well. • d) The cell plate was cultured overnight in a 37° C., 5% CO2 incubator.
(§3) Dilution of Compounds in DMSO: • a) MV-4-11 cells: The compounds were diluted with DMSO from 10 mM to 60 uM, and then subjected to a 3-fold serial gradient dilution in DMSO from 60 uM, resulting in 9 concentrations. • b) MOLM-13 cells: The compounds were diluted with DMSO from 10 mM to 200 uM, and then subjected to a 3-fold serial gradient dilution in DMSO from 200 uM, resulting in 9 concentrations. • c) Compound Taxol was diluted with DMSO from 10 mM to 200 uM, and then subjected to a 3-fold serial gradient dilution in DMSO from 200 uM, resulting in 9 concentrations.
(§4) (4) Treatment of Cells with Compounds (after the Overnight Incubation of the Cell Plate) • a) Each well was replenished with 99 μl of growth medium containing 10% FBS, and then 1 μl of the diluted compound was added to the well. The concentration of DMSO was 0.5%. • b) Concentrations of the tested compounds were: MV-4-11 cells: 300, 100, 33.3, 11.1, 3.7, 1.23, 0.41, 0.137, 0.046, 0 [nM]. • MOLM-13 cells: 1000, 333.3, 111.1, 37.04, 12.35, 4.1, 1.37, 0.46, 0.15, 0 [nM]. • c) Concentrations of control compound Taxol were: 1000, 333.3, 111.1, 37.04, 12.35, 4.12, 1.37, 0.46, 0.15, 0 [nM]. • d) The cell plate was placed in the incubator for 72 hours.
(§5) (5) CTG Assay • a) The test plate was placed at room temperature and equilibrated for 30 minutes, and 60 μl of the culture medium was discarded. • b) 60 μl of CTG reagent (CelltiterGlo kit) was added, and the plate was placed on a rapid plate shaker to shake for 2 min, and then let it stand at room temperature for 20 min. • c) Envision was used to read the values.
(§6) IC50 values were calculated using GraphPad Prism 6 software. The IC50 (half inhibitory concentration) values of the compounds were obtained by the following non-linear fitting formula. Y=Bottom+(Top−Bottom)/(1+10^((Log IC50−X)*HillSlope)) • X: Log value of the compound concentration • Y: Inhibition rate (% inhibition) % inhibition (inhibition rate)=100*(value of the High Control-value of the test compound well)/(value of the High Control-value of the Low Control)

A further data set concerns MOLM-13 cells. Description: Inhibition of cell MOLM-13 proliferation (CTG assay). In kind it is cell-based. Conditions: Homo sapiens, 72 hours, read-out: MOLM-1 IC50.
Text: as §1, §2, §3, §4, §5, §6

A short description of data set [1]: Pharmacokinetic experiment in rats. In kind it is in vivo, Sprague-Dawley rats. The following applies: rat; for AUC(0-t) / Cmax / Tmax / half-life / AUC(0-inf) / MRT inf: male, Sprague-Dawley, plasma; for AUC(0-inf): read-out: AUCINF_pred; for MRT inf: read-out: MRTINF_pred. The protocol:
Six male Sprague-Dawley rats, 7 to 8 weeks old, weighing approximately 210 g, were divided into 2 groups with 3 rats in each group. The pharmacokinetic differences of the compounds were compared after they were administered to the rats at a single dose through vein (in vein 3 mg/kg) or mouth (orally 10 mg/kg).
The rats were fed with standard feed and water, and fasted 16 hours before the experiment. The drugs were dissolved with PEG400 and dimethyl sulfoxide. The blood samples were collected from eyelids at the time point of 0.083, 0.25, 0.5, 1, 2, 4, 6, 8, 12 and 24 hours after administration.
The rats were anesthetized for a short time after inhaling ether, and 300 μL of blood samples was collected from the eyelids and put into test tubes, which contains 30 μL of 1% heparin salt solution. The test tubes were dried overnight at 60° C. prior to use. After the blood sample collection at the last time point, the rats were sacrificed after the ether anesthesia.
Immediately after the collection of the blood samples, the test tubes were gently inverted at least 5 times to ensure the fully mixing and placed on ice. The blood samples were centrifuged at 4° C., 5000 rpm for 5 minutes to separate the plasma from the red blood cells. 100 μL of plasma was pipetted into a clean plastic centrifuge tube, with the name of the compound and time point on it. The plasma was stored at −80° C. before analysis, and LC-MS/MS was used to determine the concentration of the compounds disclosed herein in plasma. Pharmacokinetic parameters were calculated based on the plasma concentrations of each animal at different time points.

In a further data set the test system is Ba/F3 parental cells. Description: Inhibition of Ba/F3 parental cell proliferation (CTG). The following applies: Mus musculus, BaF3, 72 hours, with IL-3. In kind it is cell-based. The protocol: (§7) Cell lines were cultured under the condition of 37° C., 5% CO2 and 95% humidity: cell line Ba/F3 parental (suspended, 3000 cells/well, medium was RPMI-1640+10% FBS+8 ng/ml IL-3), cell line Ba/F3 FLT3-ITD (suspended, 3000 cells/well, medium was RPMI-1640+10% FBS)
(§8) Reagents and materials: Fetal bovine serum (FBS, GBICO, Cat. No. 10099-141), CellTiter-Glo® Luminescent Cell Viability Assay (Promega, Cat. No. G7572), 96-well plate with transparent flat bottom and black walls (Corning®, Cat. No. 3603), control compound AC220 (Selleck, Cat. No. S1526).
(§9) Cell Culture and Inoculation: • 1. Cells in the logarithmic growth phase were harvested and counted using a platelet counter. The cell viability was determined by trypan blue exclusion method to ensure that the cell viability was greater than 90%; • 2. The cell concentration was adjusted and 90 μL of the cell suspension was added into a 96-well plate respectively; • 3. The cells in the 96-well plate were cultured overnight under the condition of 37° C., 5% CO2 and 95% humidity.
(§10) Drug Dilution and Dosing: • 1. The 10-fold drug solutions were prepared with a maximum concentration of 100 μM, which was diluted using a 3.16-fold serial gradient dilution, resulting in 9 concentrations. 10 μL of the drug solutions was added to each well of the 96-well plate inoculated with Ba/F3 parental cells; and each drug concentration was set in triplicate. • 2. The 10-fold drug solutions were prepared with a maximum concentration of 10 μM, which was diluted using a 3.16-fold serial gradient dilution, resulting in 9 concentrations. 10 μL of the drug solutions was added to each well of the 96-well plate inoculated with Ba/F3 FLT3-ITD cells; and each drug concentration was set in triplicate. • 3. The cells in the 96-well plate with drugs were cultured at 37° C., 5% CO2 and 95% humidity for 72 hours, and then CTG analysis was carried out.
(§11) Plate Reading at the End Point: • 1. CTG reagent was thawed and the cell plate was equilibrated to room temperature for 30 minutes; • 2. Equal volume of the CTG solution was added to each well; • 3. The cell plate was shaked on the orbital shaker for 5 minutes to lyse the cells; • 4. The cell plate was placed at room temperature for 20 minutes to stabilize the cold light signal; • 5. The cold light values were read.
(§12) GraphPad Prism 8.0 software was used to analyze the data, and the data was fitted using the non-linear S-curve regression to get a dose-effect curve, and IC50 values were calculated. Cell viability (%)=(Lum of test drug−Lum of medium control)/(Lum of cell control−Lum of medium control)×100%.

A further data set concerns Ba/F3 FLT3-ITD cells. Description: Inhibition of Ba/F3 FLT3-ITD cell proliferation (CTG). Format: cell-based. Conditions: 72 hours, read-out: BaF3 [FLT3-ITD] IC50. The protocol: as §7, §8, §9, §10, §11, §12

Read-outs that look alike come from different tables or passages of the source.

Turning to `[2H]C([2H])([2H])C([2H])([2H])c1nc(C(N)=O)c(Nc2ccc(N3CCC(N4CCN(C)CC4)CC3)c(OC)c2)nc1NC1CCOCC1` [Compound T-4, 6-(ethyl-d5)-3-((3-methoxy-4-(4-(4-methylpiperazin-1-yl)piperidin-1-yl)phenyl)amino)-5-((tetrahydro-2H-pyran-4-yl)amino)pyrazine-2-carboxamide], the IC50 with MV-4-11 cells turned out to be 1.92 nM. Further, the IC50 in the data set with MOLM-13 cells is 13 nM. Also, in data set [1] (IV 3 mg/kg), the AUC(0-t) is 639 ng·h/mL, the Cmax was 138 ng/mL, the Tmax is 0.08 h and the half-life is 4.52 h. Besides, in data set [1] (IV 3 mg/kg), the AUC(0-inf) stood at 651 ng·h/mL, the MRT inf was determined as 4.56 h and the Vz_pred was determined as 30.45 L/kg. Also, in data set [1] (PO 10 mg/kg), the AUC(0-t) is 666 ng·h/mL, the Cmax turned out to be 61.2 ng/mL, the Tmax amounted to 4 h and the half-life is 4.07 h. Also, in data set [1] (PO 10 mg/kg), the AUC(0-inf) turned out to be 687 ng·h/mL, the MRT inf was 8.11 h and the Vz_pred is on record as 87.60 L/kg. In addition, in data set [1] (PO 10 mg/kg vs IV 3 mg/kg), the F turned out to be 31.26%.

Turning to `[2H]C([2H])([2H])Oc1cc(Nc2nc(NC3CCOCC3)c(C([2H])([2H])C([2H])([2H])[2H])nc2C(N)=O)ccc1N1CCC(N2CCN(C)CC2)CC1` [Compound T-6, 6-(ethyl-d5)-3-((3-(methoxy-d3)-4-(4-(4-methylpiperazin-1-yl)piperidin-1-yl)phenyl)amino)-5-((tetrahydro-2H-pyran-4-yl)amino)pyrazine-2-carboxamide], the IC50 was 2.07 nM with MV-4-11 cells, 11.9 nM in the data set on MOLM-13 cells, over 10000 nM in the data set with Ba/F3 parental cells and 69.1 nM in the data set on Ba/F3 FLT3-ITD cells.

`[2H]C1([2H])CN(c2ccc(Nc3nc(NC4CCOCC4)c(CC)nc3C(N)=O)cc2OC)CC([2H])([2H])C1N1CCN(C)CC1` [Compound T-7, 6-ethyl-3-((3-methoxy-4-(4-(4-methylpiperazin-1-yl)piperidin-1-yl-3,3,5,5-d4)phenyl)amino)-5-((tetrahydro-2H-pyran-4-yl)amino)pyrazine-2-carboxamide]: the IC50 is 1.64 nM with MV-4-11 cells, 12.7 nM in the data set on MOLM-13 cells, 8430 nM in the data set on Ba/F3 parental cells and 53.9 nM in the data set on Ba/F3 FLT3-ITD cells.
